Experimental data from US9670184B2, “Amorphous allisartan isoproxil, preparation method therefor, and pharmaceutical composition containing amorphous allisartan isoproxil” (SHENZHEN SALUBRIS PHARMACEUTICALS CO. LTD, priority 2013, dated 2017).

Tests used:
Type in all cases: physicochemical
[1] = Bulk density of powders, measurement in a graduated cylinder (Method I of Bulk Density, Ph. Eur); conditions: powder sieved through 100-mesh screen
From the text: (§1) The powders of experiment 1 and 3 were pulverized and then sieved through a 100-mesh screen to obtain powders with particle size similar to the crystal powder. Then the repose angles of the powders were detected respectively by using a fixed-funnel method; and the bulk densities of the powders were detected respectively by using measurement in a graduated cylinder (Method I of Bulk Density disclosed in Ph. Eur), and the results were shown in the table below: […]

[2] = Electrostatic phenomenon of the dried powder (observation); conditions: powder after drying
[3] = Repose angle of powders by fixed-funnel method; conditions: powder sieved through 100-mesh screen
From the text: as §1

Bulk Density [1] [g/mL] | Electrostatic phenomenon [2] | Repose Angle [3] | SMILES
0.51 | obvious electrostatic phenomenon | 48-53 ° | CCCCc1nc(Cl)c(C(=O)OCOC(=O)OC(C)C)n1Cc1ccc(-c2ccccc2-c2nnn[nH]2)cc1 [Patent Crystal, 2-butyl-4-chloro-1-[2′-(1H-tetrazol-5-yl)-1,1′-biphenyl-methyl]-imidazole-5-carboxylic acid, 1-[(isopropoxy)-carbonyloxy]methyl ester, reference compound]
0.79 | no obvious electrostatic phenomenon | 33-36 ° | CCCCc1nc(Cl)c(C(=O)OCOC(=O)OC(C)C)n1Cc1ccc(-c2ccccc2-c2nnn[nH]2)cc1 [Amorphous allisartan isoproxil obtained from experiment 3] [2-butyl-4-chloro-1-[2′-(1H-tetrazol-5-yl)-1,1′-biphenyl-methyl]-imidazole-5-carboxylic acid, 1-[(isopropoxy)-carbonyloxy]methyl ester]
 | no obvious electrostatic phenomenon |  | CCCCc1nc(Cl)c(C(=O)OCOC(=O)OC(C)C)n1Cc1ccc(-c2ccccc2-c2nnn[nH]2)cc1 [Experiment 2, 2-butyl-4-chloro-1-[2′-(1H-tetrazol-5-yl)-1,1′-biphenyl-methyl]-imidazole-5-carboxylic acid, 1-[(isopropoxy)-carbonyloxy]methyl ester]
0.77 | no obvious electrostatic phenomenon | 33-36 ° | CCCCc1nc(Cl)c(C(=O)OCOC(=O)OC(C)C)n1Cc1ccc(-c2ccccc2-c2nnn[nH]2)cc1 [Amorphous allisartan isoproxil obtained from experiment 1] [2-butyl-4-chloro-1-[2′-(1H-tetrazol-5-yl)-1,1′-biphenyl-methyl]-imidazole-5-carboxylic acid, 1-[(isopropoxy)-carbonyloxy]methyl ester]
